Data set [1] in a line: Inhibition of GST tagged NDM-1 (unknown origin) expressed in Escherichia coli BL21 Star (DE3) competent cells using CCF2-FA as substrate incubated for 2 hrs by fluorescence based analysis.
Data set [2] can be described thus: Inhibition of GST tagged IMP-1 (unknown origin) expressed in Escherichia coli BL21 Star (DE3) competent cells using CCF2-FA as substrate incubated for 2 hrs by fluorescence based analysis.
Data set [3] is described as follows: Inhibition of GST tagged VIM-1 (unknown origin) expressed in Escherichia coli BL21 Star (DE3) competent cells using CCF2-FA as substrate incubated for 2 hrs by fluorescence based analysis.
The next data set concerns Escherichia coli. Briefly: Potentiation of imipenem induced antibacterial activity against Escherichia coli CLB30005 harbouring NDM-1 incubated for 18 to 22 hrs in presence of imipenem by spectrophotometer based analysis. Particulars: time 18-22 hrs. Format: functional.
Another data set has as its system Serratia marcescens. Description: Potentiation of imipenem induced antibacterial activity against Serratia marcescens CL5741 harbouring IMP-1 incubated for 18 to 22 hrs imipenem by spectrophotometer based analysis. Particulars: time 18-22 hrs. Format: functional.
A further data set relates to Klebsiella pneumoniae. Description: Potentiation of imipenem induced antibacterial activity against Klebsiella pneumoniae IHMA599644 harbouring VIM-1 incubated for 18 to 22 hrs imipenem by spectrophotometer based analysis. Type of data set: functional. Particulars: time 18-22 hrs.
Data set [4] deals with Pseudomonas aeruginosa. Briefly: Potentiation of imipenem induced antibacterial activity against isogenic efflux wild type Pseudomonas aeruginosa MB9798 harbouring IMP incubated for 18 to 22 hrs imipenem and beta lactamase inhibitor by spectrophotometer based analysis. Format: functional. To be noted: time 18-22 hrs.
In data set [5] the test system is Pseudomonas aeruginosa. Description: Potentiation of imipenem induced antibacterial activity against isogenic efflux deleted mutant Pseudomonas aeruginosa MB9799 harbouring IMP incubated for 18 to 22 hrs imipenem and beta lactamase inhibitor by spectrophotometer based analysis. Type of data set: functional. To be noted: time 18-22 hrs.
In data set [6] the test system is Pseudomonas aeruginosa. Description: Efflux ratio of MITC95 for potentiation of imipenem induced antibacterial activity against isogenic efflux wild type Pseudomonas aeruginosa MB9798 harbouring IMP to MITC95 for potentiation of imipenem induced antibacterial activity against isogenic efflux deleted mutant Pseudomonas aeruginosa MB9799 harbouring IMP. Format: functional.

The nature of data set [7]: Inhibition of GST tagged VIM-2 (unknown origin) expressed in Escherichia coli BL21 Star (DE3) competent cells using CCF2-FA as substrate incubated for 2 hrs by fluorescence based analysis.
Data set [8] can be described thus: AUC in rat at 1 mg/kg, iv measured after 24 hrs by HPLC-MS analysis. Format: ADME, organism-based. Particulars: in vivo.
The nature of data set [9]: Clearance in rat at 1 mg/kg, iv measured after 24 hrs by HPLC-MS analysis. Particulars: in vivo. Type of data set: ADME, organism-based.
Data set [10] is described as follows: Volume of distribution at steady state in rat at 1 mg/kg, iv measured after 24 hrs by HPLC-MS analysis. Type of data set: ADME, organism-based. To be noted: in vivo, read-out: Vdss.
The nature of data set [11]: Cmax in rat at 1 mg/kg, iv measured after 24 hrs by HPLC-MS analysis. Format: ADME, organism-based. Particulars: in vivo.
Data set [12] can be described thus: MRT in rat at 1 mg/kg, iv measured after 24 hrs by HPLC-MS analysis. Format: ADME, organism-based. Particulars: in vivo.
Data set [13] can be described thus: Unbound fraction in rat plasma at 1 mg/kg, iv measured after 24 hrs by HPLC-MS analysis. Format: ADME, organism-based.
Data set [14] is described as follows: AUC in Beagle dog at 1 mg/kg, iv measured after 24 hrs by HPLC-MS analysis. Format: ADME, organism-based, Canis lupus familiaris. Particulars: in vivo.
A short description of data set [15]: Clearance in Beagle dog at 1 mg/kg, iv measured after 24 hrs by HPLC-MS analysis. Format: ADME, organism-based, Canis lupus familiaris. To be noted: in vivo.
Data set [16] can be described thus: Volume of distribution at steady state in Beagle dog at 1 mg/kg, iv measured after 24 hrs by HPLC-MS analysis. Type of data set: ADME, organism-based, Canis lupus familiaris. To be noted: in vivo, read-out: Vdss.
Data set [17] can be described thus: Cmax in Beagle dog at 1 mg/kg, iv measured after 24 hrs by HPLC-MS analysis. Format: ADME, organism-based, Canis lupus familiaris. Particulars: in vivo.
The nature of data set [18]: MRT in Beagle dog at 1 mg/kg, iv measured after 24 hrs by HPLC-MS analysis. Format: ADME, organism-based, Canis lupus familiaris. To be noted: in vivo.
Data set [19] in a line: Unbound fraction in Beagle dog plasma at 1 mg/kg, iv measured after 24 hrs by HPLC-MS analysis. Format: ADME, organism-based, Canis lupus familiaris.
Data set [20] is described as follows: Toxicity in Beagle dog assessed as severe adverse effect at 1 mg/kg, iv measured after 24 hrs by HPLC-MS analysis. Type of data set: organism-based, Canis lupus familiaris. To be noted: in vivo.

Turning to `Nc1ccc(-c2ccc(C(F)(F)F)c(S(N)(=O)=O)c2-c2nn[nH]n2)cn1`, the IC50 in [1] turned out to be 2700 pM; in data set [2] it was 6900 pM; in data set [3] it was 1300 pM; in data set [7] it was 3100 pM. In addition, the MITC95 with Escherichia coli came out at 0.2 µM; with Serratia marcescens it was 0.4 µM; in the data set on Klebsiella pneumoniae, 4.8 µM; in the data set with Pseudomonas aeruginosa [4] it was 200 µM; with Pseudomonas aeruginosa [5], 1.56 µM. The Ratio in the data set on Pseudomonas aeruginosa [6] is 128.

For the compound `N=C(N)NCc1ccc(-c2ccc(C(F)(F)F)c(S(N)(=O)=O)c2-c2nn[nH]n2)cc1`, the IC50 turned out to be 3900 pM in data set [1], 3400 pM in data set [2] and 400 pM in data set [3]. Moreover, the MITC95 in the data set with Escherichia coli was 0.3 µM; in the data set with Serratia marcescens, 0.06 µM; with Klebsiella pneumoniae, 0.8 µM; with Pseudomonas aeruginosa [4] it was 35.4 µM; with Pseudomonas aeruginosa [5] it was 0.39 µM. In addition, the Ratio in the data set on Pseudomonas aeruginosa [6] is given as 90.

With `Nc1ccc2cccc(-c3ccc(C(F)(F)F)c(S(N)(=O)=O)c3-c3nn[nH]n3)c2n1`, the values for the IC50 in data set [1], in data set [2] and in data set [3] were 100 pM, 800 pM and 400 pM, respectively. Moreover, the MITC95 was 1.6 µM in the data set on Escherichia coli; 3.1 µM in the data set on Serratia marcescens; 3.1 µM with Klebsiella pneumoniae; 12.5 µM in the data set with Pseudomonas aeruginosa [4]; 0.78 µM in the data set with Pseudomonas aeruginosa [5]. Besides, the Ratio in the data set with Pseudomonas aeruginosa [6] is recorded as 16.

Turning to `Nc1nc2c(-c3ccc(CC4CCNCC4)c(S(N)(=O)=O)c3-c3nn[nH]n3)cccc2s1`, the IC50 in data set [1] came out at 700 pM; in data set [2], 19000 pM; in data set [3] it was 2200 pM; in data set [7] it was 2100 pM. In addition, the MITC95 in the data set with Escherichia coli came out at 0.8 µM; in the data set on Serratia marcescens, 3.1 µM; in the data set with Klebsiella pneumoniae, 1.6 µM; with Pseudomonas aeruginosa [4], 18 µM; with Pseudomonas aeruginosa [5] it was 1.6 µM. For the same compound, in the data set with Pseudomonas aeruginosa [6], the Ratio stood at 11.

Take `Nc1nc2c(-c3ccc(C(F)(F)F)c(S(N)(=O)=O)c3-c3nn[nH]n3)cccc2s1`: the IC50 in data set [1] stood at 200 pM; in [2], 1000 pM; in [3] it was 400 pM; in data set [7], 100 pM. Besides, the MITC95 with Escherichia coli came to 3.1 µM; in the data set with Serratia marcescens, 1.6 µM; in the data set on Klebsiella pneumoniae it was 3.1 µM; with Pseudomonas aeruginosa [4], 6.3 µM; with Pseudomonas aeruginosa [5] it was 0.78 µM. Moreover, the Ratio in the data set on Pseudomonas aeruginosa [6] was 8.

With `Nc1ccc2ccc(-c3ccc(C(F)(F)F)c(S(N)(=O)=O)c3-c3nn[nH]n3)cc2n1`, the values for the IC50 in data set [1], in data set [2] and in [3] were 1100 pM, 1500 pM and 200 pM, respectively. Besides, the MITC95 in the data set with Escherichia coli came out at 0.8 µM; in the data set with Serratia marcescens, 3.1 µM; in the data set with Klebsiella pneumoniae, 3.1 µM; in the data set on Pseudomonas aeruginosa [4], 100 µM; in the data set on Pseudomonas aeruginosa [5] it was 0.39 µM. For the same compound, in the data set with Pseudomonas aeruginosa [6], the Ratio came to 256.

Consider `Nc1nc2cccc(-c3ccc(C(F)(F)F)c(S(N)(=O)=O)c3-c3nn[nH]n3)c2s1`, for which the IC50 in data set [1] came to 40 pM; in data set [2] it was 800 pM; in data set [3], 100 pM. The MITC95 with Escherichia coli came to 1.6 µM; in the data set with Serratia marcescens it was 6.3 µM; in the data set with Klebsiella pneumoniae it was 6.3 µM; with Pseudomonas aeruginosa [4], 50 µM; with Pseudomonas aeruginosa [5], 1.56 µM. Besides, the Ratio in the data set on Pseudomonas aeruginosa [6] is 32.

Consider `NCCCc1ccc(-c2cccc3sc(N)nc23)c(-c2nn[nH]n2)c1S(N)(=O)=O`, for which the IC50 in data set [1] worked out at 800 pM; in data set [2], 12000 pM; in data set [3], 1800 pM. The MITC95 with Escherichia coli was determined as 0.8 µM; with Serratia marcescens, 1.6 µM; with Klebsiella pneumoniae, 1.6 µM; with Pseudomonas aeruginosa [4] it was 12.5 µM; in the data set on Pseudomonas aeruginosa [5] it was 0.8 µM. Further, in the data set with Pseudomonas aeruginosa [6], the Ratio stood at 16.

In the case of `NS(=O)(=O)c1c(C(F)(F)F)ccc(-c2ccc(NS(=O)(=O)C3CC3)cc2)c1-c1nn[nH]n1`, the IC50 in data set [1] is 300 pM; in data set [2], 200 pM; in [3] it was 80 pM. For the same compound, the MITC95 was determined as 6.3 µM in the data set on Escherichia coli; 3.1 µM with Serratia marcescens; 12.5 µM with Klebsiella pneumoniae; 50 µM in the data set with Pseudomonas aeruginosa [4]; 0.78 µM in the data set on Pseudomonas aeruginosa [5]. In the data set on Pseudomonas aeruginosa [6], the Ratio was determined as 64.

`Nc1nc2ccc(-c3ccc(C(F)(F)F)c(S(N)(=O)=O)c3-c3nn[nH]n3)cc2s1`: the IC50 in [1] amounted to 800 pM; in data set [2] it was 2500 pM; in data set [3], 300 pM. Also, the MITC95 with Escherichia coli was 3.1 µM; in the data set on Serratia marcescens, 3.1 µM; in the data set on Klebsiella pneumoniae, 12.5 µM; in the data set on Pseudomonas aeruginosa [4] it was 200 µM; in the data set on Pseudomonas aeruginosa [5], 1.56 µM. Further, the Ratio in the data set on Pseudomonas aeruginosa [6] was determined as 128.

For `NS(=O)(=O)c1c(C(F)(F)F)ccc([C@H]2CC[C@H](N)CC2)c1-c1nnn[nH]1`, the values for the IC50 in data set [1], in data set [2] and in data set [3] were 13500 pM, 39400 pM and 700 pM, respectively. For the same compound, the MITC95 with Escherichia coli is 0.4 µM; in the data set on Serratia marcescens, 0.8 µM; in the data set with Klebsiella pneumoniae, 0.8 µM; with Pseudomonas aeruginosa [4], 200 µM; in the data set on Pseudomonas aeruginosa [5], 0.78 µM. The Ratio with Pseudomonas aeruginosa [6] was found to be 256. The values for the AUC at 24 h in data set [8] and in [14] were 5 µM·h and 16.7 µM·h, respectively. Further, the clearance came out at 8.7 mL/min/kg in data set [9] and 2.6 mL/min/kg in [15]. The Vd was found to be 0.45 L/kg in data set [10] and 0.31 L/kg in data set [16]. For the same compound, the figures for the Cmax in data set [11] and in data set [17] were 12.7 µM and 15 µM, respectively. Also, the figures for the mean residence time MRT in data set [12] and in data set [18] were 0.87 h and 2.03 h, respectively. For the same compound, the figures for the fraction unbound at 24 h in data set [13] and in data set [19] were 0.78 and 0.76, respectively. In addition, in [20], the Activity entry was “Non-Toxic”.

By IC50 is commonly meant the concentration needed to halve the response being measured. By AUC is commonly meant the area under the concentration-time curve, a measure of exposure. A higher AUC goes with high exposure. As usually defined, the clearance is the rate of elimination divided by the concentration. Lower therefore signals inefficient removal. Broadly, the Cmax is the maximum level reached in the sampled fluid or tissue. What is called MRT is the average time that molecules of a dose stay in the body. The term fraction unbound denotes free concentration divided by total concentration.
